The text below walks through data of patent publication US11844808B2, “Methods and compositions for treating pre-eclampsia” (Women & Infants Hospital of Rhode Island, priority 2018, dated 2023).

Data set [1] concerns LAMP1/2, TFEB and cathepsin D. Nature of the data set: Expression of LAMP1/2, TFEB and cathepsin D in hypoxia-exposed primary trophoblast cells. In kind it is cell-based, human. The protocol:
FIG. 15. To investigate the underlying mechanisms, it was evaluated whether Trehalose can enhance the activities of autophagy-lysosomal degradation pathway, the machinery responsible for clearance of protein aggregates. To this end, the signaling molecules of this machinery such as LAMP1/2, TFEB and cathepsin D were examined in primary trophoblast cells in response to hypoxia stimulation with and without Trehalose treatment.

Data set [2] has as its system pregnant IL10-/- mice. The data set is described as follows: Mouse model of PE: severe PE serum in pregnant IL10-/- mice. In kind it is in vivo. To be noted: for preeclampsia-like features (hypertension, proteinuria, growth restriction, kidney injury): PE serum at gd10 in IL-10-/- mice, 2 g/kg i.p. at gd9, or gd11 and gd14, or gd9, gd11 and gd14, readout gd17. Here is the method:
(§1) FIGS. 16 and 17. Based on the results in the cellular model of PE, the effect of Trehalose treatment in an animal model of PE was evaluated next in an established mouse model of PE by a single administration of severe PE serum in pregnant IL10^−/− mice at gd10^22. Using this model, mice were injected intraperitoneally with vehicle, Trehalose (2 g/kg), maltose, or D-glucose (2 g/kg) at gestational day (gd) 9 (a single dose before serum injection), at gd11 and gd14 (two doses after serum injection), or at gd9, gd11 and gd14 (one dose before and two doses after serum injection) (FIG. 16). At gd17, urine was collected, blood pressure was measured, and fetal weight was recorded (FIG. 17A-D). Kidney was fixed and processed for H&E staining for glomerular endotheliosis (FIG. 17E). As reported previously, administration of severe PE sera, not normal pregnancy sera, at gd10 recapitulated a full spectrum of PE-like manifestations in IL-10^−/− mice, including hypertension, proteinuria, renal injury and fetal growth restriction (FIG. 17).

The subject of data set [3] is cis-P-tau. The data set is described as follows: cis-P-tau immunostaining in hypoxia-exposed primary trophoblast cells. To be noted: trehalose 50 mM, 1% O2, 3 days. In kind it is cell-based, human. The protocol: (§2) Human primary trophoblast cells (ScienCell Research Laboratories) were plated on glass coverslips and cultured in trophoblast medium supplemented with 5% fetal bovine serum, 1% trophoblast growth supplement and 1% penicillin/streptomycin (ScienCell Research Laboratories) in a humidified atmosphere with 5% CO2 at 37° C. Cells were washed three times with Dulbecco's phosphate-buffered saline and cultured in serum-free trophoblast medium prior to exposure to low oxygen tension (1% O2) or normoxia (20% O2) for 3 days. Cells were fixed with 4% formaldehyde in PBS for 15 min, permeabilized and then stained with ProteoStat® dye.
Primary trophoblast cells were treated with vehicle or trehalose (50 mM), exposed to low oxygen tension (1% O2) or normoxia, and fixed at 3 days. After permeabilized and blocked in PBS solution containing 1% Triton-X, 3% BSA and normal donkey serum for 30 min, cells were immunostained for cis-P-tau and mounted in anti-quench mounting medium with DAPI.

Data set [4] concerns Pin1. Nature of the data set: Pin1 immunostaining in nuclei of hypoxia-exposed primary trophoblast cells. In kind it is cell-based, human. To be noted: trehalose 50 mM, 1% O2, 3 days. Here is the method:
as §2
Primary trophoblast cells were treated with vehicle or trehalose (50 mM), exposed to low oxygen tension (1% O2) or normoxia, and fixed at 3 days. After permeabilized and blocked in PBS solution containing 1% Triton-X, 3% BSA and normal donkey serum for 30 min, cells were immunostained for […] with mouse anti-Pin1 antibody and then with Alexa Fluor 488 donkey anti-mouse secondary antibody. Cells were then mounted in anti-quench mounting medium with DAPI.

In data set [5] the test system is pS71-Pin1. Nature of the data set: pS71-Pin1 immunostaining in nuclei of hypoxia-exposed primary trophoblast cells. To be noted: trehalose 50 mM, 1% O2, 3 days. In kind it is cell-based, human. The protocol: as §2
Primary trophoblast cells were treated with vehicle or trehalose (50 mM), exposed to low oxygen tension (1% O2) or normoxia, and fixed at 3 days. After permeabilized and blocked in PBS solution containing 1% Triton-X, 3% BSA and normal donkey serum for 30 min, cells were immunostained for pS71-Pin1 with rabbit anti-pS71-Pin1 antibody and then with Alexa Fluor 488 donkey anti-rabbit secondary antibody. Cells were then mounted in anti-quench mounting medium with DAPI.

Data set [6] has as its system components of autophagy-lysosomal machinery. The data set is described as follows: Western blot of autophagy markers in hypoxia-exposed primary trophoblast cells. In kind it is cell-based, human. Conditions: trehalose 50 mM, 1% O2, 3 days. The protocol:
Primary trophoblast cells were treated with vehicle or trehalose (50 mM), exposed to low oxygen tension (1% O2) or normoxia, and fixed at 3 days. Cells were harvested and lysed in RIPA lysis buffer containing protease inhibitors cocktail (Sigma). Proteins were separated by 4-12% SDS-PAGE and transferred into PVDF membrane. After blocking with 5% nonfat milk in PBS-tween (PBS-T) buffer for 30 min, the transferred membrane was incubated overnight in indicated primary antibodies, diluted in 3% or 5% BSA in PBS-T buffer, at 4° C. The membrane was washed three times, incubated for 1 h at room temperature with HRP-conjugated goat anti-rabbit/mouse IgG (Cell signaling), and then treated with enhanced chemiluminescent substrate (Thermofisher) and exposed on film.
A general note: Immunoblotting shows a protein as a band on a membrane.

In data set [7] the test system is protein aggregates in primary trophoblast cells. The data set is described as follows: ProteoStat staining of protein aggregates in hypoxia-exposed primary trophoblast cells. In kind it is cell-based, human. To be noted: 1% O2, 3 days. The protocol:
Human primary trophoblast cells (ScienCell Research Laboratories) were plated on glass coverslips and cultured in trophoblast medium supplemented with 5% fetal bovine serum, 1% trophoblast growth supplement and 1% penicillin/streptomycin (ScienCell Research Laboratories) in a humidified atmosphere with 5% CO2 at 37° C. Cells were washed three times with Dulbecco's phosphate-buffered saline and cultured in serum-free trophoblast medium prior to exposure to low oxygen tension (1% O2) or normoxia (20% O2) for 3 days. Cells were fixed with 4% formaldehyde in PBS for 15 min, permeabilized and then stained with ProteoStat® dye. […] FIG. 14. The effect of Trehalose on protein aggregation was examined in primary trophoblast cells in response to hypoxia, a useful cellular model of PE. Primary trophoblast cells were cultured under normoxic and hypoxic (1% O2) culture conditions for 3 days, treated with vehicle, Trehalose, maltose, sucrose or D-glucose and then fixed for staining or lysed for Western blotting. ProteoStat, a dye with high affinity to aggregated proteins, was used to detect protein aggregates in treated and untreated cells.

The test system of data set [8] is TCL-1 cells. Nature of the data set: Autophagy-lysosomal machinery and protein aggregates in trophoblast cell line TCL-1 under hypoxia. In kind it is cell-based, human.
Data set [9] relates to placenta of pre-eclamptic mice. Nature of the data set: Placentas of pre-eclamptic mice: ProteoStat signal and cathepsin D expression. In kind it is in vivo, mouse. To be noted: all dose regimens. Here is the method:
as §1
FIG. 18. Furthermore, the molecular events that underlie effects of Trehalose in pre-eclamptic mice were interrogated. The placentas from Trehalose-treated mice and controls were assessed for the abundance of aggregated proteins and expression of molecules in autophagy-lysosomal pathway.

For data set [10] the following is noted: FDA; safety studies in mice, rats, and rabbits including in pregnancy; cited from earlier work.

Regarding `OC[C@H]1O[C@H](O[C@H]2[C@H](O)[C@@H](O)C(O)O[C@@H]2CO)[C@H](O)[C@@H](O)[C@@H]1O` (mixture of isomers) [maltose, reference compound], in data set [1], the “hypoxia-induced downregulation of LAMP1/2, TFEB and cathepsin D” value is “not easily observed”. Further, the “preeclampsia-like features (hypertension, proteinuria, growth restriction, kidney injury)” value (from here on “preeclampsia-like features”) in data set [2] was “failed to rescue PE-like features”.
Regarding `OC[C@H]1O[C@H](O[C@H]2O[C@H](CO)[C@@H](O)[C@H](O)[C@H]2O)[C@H](O)[C@@H](O)[C@@H]1O` [Trehalose], in [3], the “hypoxia-induced upregulation of cis-P-tau” value is on record as “blocked hypoxia-induced upregulation of cis-P-tau”. In addition, in [4], the “hypoxia-induced downregulation of nuclear Pin1 expression” value is given as “blocked hypoxia-induced downregulation of nuclear Pin expression”. Also, in data set [5], the “hypoxia-induced upregulation of nuclear pS71-Pin1 expression” value is recorded as “inhibited hypoxia-induced upregulation of nuclear pS71-Pin1 expression”. Moreover, the “hypoxia-induced downregulation of components of autophagy-lysosomal machinery (Western blot)” value in [6] is listed as “blocked hypoxia-induced downregulation of these proteins”. Also, the “hypoxia-induced accumulation of protein aggregates (ProteoStat signal)” value in data set [7] is given as “significantly rescued hypoxia-induced accumulation of protein aggregates”; in [7] (listed as trehalose), “inhibits protein aggregation”. Further, the “hypoxia-induced downregulation of LAMP1/2, TFEB and cathepsin D” value in data set [1] was “significantly rescued hypoxia-induced downregulation of these molecules”. The “autophagy-lysosomal machinery and aggregate clearance under hypoxia” value in data set [8] is reported as “restores autophagy machinery”. Also, in [2], the “preeclampsia-like features” value was “significantly reversed preeclampsia-like features”. In data set [2] (normal pregnancy serum, IL-10-/- mice, 2 g/kg i.p.), the “effect in mice administered normal pregnancy sera” value is “did not have obvious effect”. Besides, the “expression of cathepsin D in placenta” value in data set [9] is “rescued the expression of cathepsin D”. For the same molecule, the “protein aggregates in placenta (ProteoStat signal)” value in data set [9] (labyrinth, junctional zone and decidua) is reported as “significantly decreased protein aggregates”. For the same molecule, the safety status result in [10] was “generally regarded as safe”.
Turning to `O=C[C@H](O)[C@@H](O)[C@H](O)[C@H](O)CO` [D-glucose, reference compound], the “hypoxia-induced downregulation of LAMP1/2, TFEB and cathepsin D” value in data set [1] is given as “not easily observed”. Also, the “preeclampsia-like features” value in [2] is “failed to rescue PE-like features”.
